In assay [1] the target is Phosphodiesterase 4 (Homo sapiens, UniProt P27815+Q08499+Q07343+Q08493). The assay is described as follows: Inhibition of Phosphodiesterase 4 from human U937 cells. To be noted: u-937. The class given is cell-based.
The target of assay [2] is T1, Phosphodiesterase 4 (Rattus norvegicus, UniProt P14270+P14646+P14644+P54748). The assay is described as follows: Inhibition of rolipram binding in rat brain tissue. The class given is tissue-based.
Assay [3] is described as follows: Relative activity against human Phosphodiesterase type 4 (PDE4) and rat rolipram binding protein (RBA). Also on record: reference not given here.
Assay [4] addresses Phosphodiesterase 3 (Homo sapiens) (UniProt Q14432+Q13370). The assay is described as follows: Inhibition of Phosphodiesterase 3 from human platelets. The arrangement: concentration or dose not given beside the values. To be noted: concentration not given here.
The target of assay [5] is T1, Phosphodiesterase 4. The assay is described as follows: Inhibition of rolipram binding to rat brain tissue at 20 uM. The class given is tissue-based.
Assay [6] concerns the target T1, Phosphodiesterase 4. The assay is described as follows: Inhibition of rolipram binding to rat brain tissue. The class given is tissue-based.

`COc1ccc(C(=O)Nc2c(Cl)cc(C#N)cc2Cl)c2cc(C(C)=O)oc12`: the values for the IC50 against Phosphodiesterase 4 [1] and at Phosphodiesterase 4 [2] were 85.1 nM and 228 nM, respectively. Moreover, the Ratio in assay [3] came to 0.37.
As to `COc1ccc(C(=O)Nc2ncncc2Cl)c2cc(C(C)=O)oc12`, the 50% inhibitory concentration (IC50) against Phosphodiesterase 4 [1] is 164 nM; on Phosphodiesterase 4 [2], 59.6 nM. Further, the Ratio in assay [3] was 2.75.
For `CCc1cc2c(C(=O)Nc3c(Cl)cncc3Cl)ccc(OC)c2o1`, the inhibition in assay [4] amounted to 46%. This molecule also came in with an IC50 against Phosphodiesterase 4 [1] of 27 nM.
Molecule `COc1ccc(C(=O)Nc2c(Cl)cncc2Cl)c2cc(C(=O)c3ccncc3)oc12` gave an inhibition in assay [4] of 7%. The IC50 came to 2.41 nM at Phosphodiesterase 4 [1] and 8.1 nM at Phosphodiesterase 4 [5]. Also, the Ratio in assay [3] was found to be 0.3.
As to `COc1ccc(C(=O)Nc2cccnc2Cl)c2cc(C(C)=O)oc12`, the results for the IC50 against Phosphodiesterase 4 [1] and at Phosphodiesterase 4 [2] were 875 nM and 199 nM, respectively. Also, the Ratio in assay [3] turned out to be 4.4.
As for `COc1ccc(C(=O)Nc2c(Cl)cncc2Cl)c2cc(CC(C)(C)C)oc12`, the inhibition in assay [4] worked out at 34%. Also, the IC50 on Phosphodiesterase 4 [1] was determined as 17 nM.
`COc1ccc(C(=O)Nc2c(Cl)cncc2Cl)c2cc(C(C)O)oc12` (stereo not given): in assay [4], the inhibition stood at 23%. The IC50 against Phosphodiesterase 4 [1] was 8.6 nM.
Regarding `COc1ccc(C(=O)Nc2ccccc2Cl)c2cc(C(C)=O)oc12`, the IC50 on Phosphodiesterase 4 [1] is 54 nM; on Phosphodiesterase 4 [6], 248 nM. Moreover, the Ratio in assay [3] was 0.21.
As to `COc1ccc(C(=O)Nc2c(Cl)cncc2Cl)c2cc(C#N)oc12`, the inhibition in assay [4] was 31%.
`COc1ccc(C(=O)Nc2ncccc2C)c2cc(C(C)=O)oc12`: the IC50 at Phosphodiesterase 4 [1] was found to be 452 nM; on Phosphodiesterase 4 [2], 1850 nM. The Ratio in assay [3] was determined as 0.24.
In the case of `COc1ccc(C(=O)N(C)c2c(Cl)cncc2Cl)c2cc(C(C)=O)oc12`, the IC50 was 330 nM at Phosphodiesterase 4 [1] and 150 nM on Phosphodiesterase 4 [2].
Consider `COc1ccc(C(=O)Nc2ccncc2Cl)c2cc(C(C)=O)oc12`, for which the IC50 against Phosphodiesterase 4 [1] came to 6.3 nM; at Phosphodiesterase 4 [2], 32 nM. The Ratio in assay [3] stood at 0.197.
In turn, `COc1ccc(C(=O)Nc2c(Cl)cncc2Cl)c2cc(C(=O)O)oc12` gave an inhibition in assay [4] of 38%. Also, at Phosphodiesterase 4 [1], the IC50 came to 770 nM.
Take `COc1ccc(C(=O)Nc2c(Cl)cncc2Cl)c2c(C)c(C(C)=O)oc12`: the IC50 against Phosphodiesterase 4 [1] was found to be 320 nM; at Phosphodiesterase 4 [2] it was 160 nM.
In assay [4], `COc1ccc(C(=O)Nc2c(Cl)cncc2Cl)c2cc(C(C)=O)oc12` gave an inhibition of 32%. Further, on Phosphodiesterase 4 [1], the IC50 came to 1.6 nM.
Regarding `COc1ccc(C(=O)Nc2ccncc2)c2cc(C(C)=O)oc12`, the IC50 was 120 nM against Phosphodiesterase 4 [1] and 250 nM at Phosphodiesterase 4 [2]. For the same molecule, the Ratio in assay [3] worked out at 0.48.

(Values after ChEMBL document CHEMBL1132733, “7-Methoxybenzofuran-4-carboxamides as PDE 4 inhibitors: a potential treatment for asthma” (Bioorg Med Chem Lett, 2000).)
